Activity calls are given as the source filed them.
Tests used:
Fatty acid synthase [1] = target: T1, Fatty acid synthase (Homo sapiens, UniProt P49327); assay: inhibition of human FAS-TE enzyme activity – biochemical, kinetic fluorescence intensity, dose response (AID 624326); type: functional;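 further: rate of fluorescence rise from hydrolysis of a fluorogenic O-methyl fluorescein ester substrate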
cells = type: functional
Fatty acid synthase [2] = target: T1, Fatty acid synthase; assay: inhibition of human FAS-TE enzyme activity – biochemical, endpoint fluorescence intensity, uHTS hits, dose response (AID 624327); type: functional;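 further: fluorescence from hydrolysis of an O-methyl fluorescein acyl ester substrate by the enzyme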
[3] = target: T2, Histone-lysine N-methyltransferase NSD2 (Homo sapiens, UniProt O96028); type: biochemical
T2 sequence (O96028 whole entry): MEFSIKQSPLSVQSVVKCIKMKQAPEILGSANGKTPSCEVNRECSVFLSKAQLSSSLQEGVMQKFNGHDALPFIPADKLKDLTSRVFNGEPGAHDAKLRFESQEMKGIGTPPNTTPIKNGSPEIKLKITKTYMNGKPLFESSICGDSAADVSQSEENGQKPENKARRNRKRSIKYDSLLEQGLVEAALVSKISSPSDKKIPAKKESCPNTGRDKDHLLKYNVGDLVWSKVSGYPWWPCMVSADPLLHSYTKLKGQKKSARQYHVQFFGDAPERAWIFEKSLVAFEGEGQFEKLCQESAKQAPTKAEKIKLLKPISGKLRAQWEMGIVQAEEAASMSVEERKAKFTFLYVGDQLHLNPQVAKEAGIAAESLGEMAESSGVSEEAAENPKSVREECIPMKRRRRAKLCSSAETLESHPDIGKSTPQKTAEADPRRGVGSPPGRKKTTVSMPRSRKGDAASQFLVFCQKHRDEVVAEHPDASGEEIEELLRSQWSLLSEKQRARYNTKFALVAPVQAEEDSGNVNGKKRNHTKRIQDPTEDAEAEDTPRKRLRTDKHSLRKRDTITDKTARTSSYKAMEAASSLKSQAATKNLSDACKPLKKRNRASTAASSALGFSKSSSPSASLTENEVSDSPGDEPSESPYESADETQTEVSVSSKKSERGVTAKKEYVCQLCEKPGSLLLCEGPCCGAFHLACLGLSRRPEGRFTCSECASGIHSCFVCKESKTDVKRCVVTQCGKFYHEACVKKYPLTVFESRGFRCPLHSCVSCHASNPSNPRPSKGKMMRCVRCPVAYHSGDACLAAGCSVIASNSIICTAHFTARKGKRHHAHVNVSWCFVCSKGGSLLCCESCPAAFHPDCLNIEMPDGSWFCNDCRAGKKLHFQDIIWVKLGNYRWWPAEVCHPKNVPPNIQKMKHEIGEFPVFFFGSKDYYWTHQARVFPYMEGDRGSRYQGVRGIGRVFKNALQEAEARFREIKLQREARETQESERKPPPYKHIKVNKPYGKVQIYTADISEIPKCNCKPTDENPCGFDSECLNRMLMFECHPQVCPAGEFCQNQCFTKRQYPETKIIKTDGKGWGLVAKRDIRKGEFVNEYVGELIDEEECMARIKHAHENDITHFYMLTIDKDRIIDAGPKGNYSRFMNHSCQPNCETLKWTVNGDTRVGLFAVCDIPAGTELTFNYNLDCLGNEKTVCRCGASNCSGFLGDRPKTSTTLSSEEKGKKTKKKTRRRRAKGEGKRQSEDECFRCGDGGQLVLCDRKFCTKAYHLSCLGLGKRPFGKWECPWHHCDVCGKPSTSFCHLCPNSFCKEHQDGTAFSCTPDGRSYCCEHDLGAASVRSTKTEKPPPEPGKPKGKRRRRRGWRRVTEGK

[4] = target: T3, Replicative DNA helicase DnaB (Mycobacterium tuberculosis, UniProt P9WMR3); assay: DnaB intein splicing inhibitors, dose response, biochemical, cell-free fluorescence (AID 449749); type: functional
T3 sequence (P9WMR3 whole entry): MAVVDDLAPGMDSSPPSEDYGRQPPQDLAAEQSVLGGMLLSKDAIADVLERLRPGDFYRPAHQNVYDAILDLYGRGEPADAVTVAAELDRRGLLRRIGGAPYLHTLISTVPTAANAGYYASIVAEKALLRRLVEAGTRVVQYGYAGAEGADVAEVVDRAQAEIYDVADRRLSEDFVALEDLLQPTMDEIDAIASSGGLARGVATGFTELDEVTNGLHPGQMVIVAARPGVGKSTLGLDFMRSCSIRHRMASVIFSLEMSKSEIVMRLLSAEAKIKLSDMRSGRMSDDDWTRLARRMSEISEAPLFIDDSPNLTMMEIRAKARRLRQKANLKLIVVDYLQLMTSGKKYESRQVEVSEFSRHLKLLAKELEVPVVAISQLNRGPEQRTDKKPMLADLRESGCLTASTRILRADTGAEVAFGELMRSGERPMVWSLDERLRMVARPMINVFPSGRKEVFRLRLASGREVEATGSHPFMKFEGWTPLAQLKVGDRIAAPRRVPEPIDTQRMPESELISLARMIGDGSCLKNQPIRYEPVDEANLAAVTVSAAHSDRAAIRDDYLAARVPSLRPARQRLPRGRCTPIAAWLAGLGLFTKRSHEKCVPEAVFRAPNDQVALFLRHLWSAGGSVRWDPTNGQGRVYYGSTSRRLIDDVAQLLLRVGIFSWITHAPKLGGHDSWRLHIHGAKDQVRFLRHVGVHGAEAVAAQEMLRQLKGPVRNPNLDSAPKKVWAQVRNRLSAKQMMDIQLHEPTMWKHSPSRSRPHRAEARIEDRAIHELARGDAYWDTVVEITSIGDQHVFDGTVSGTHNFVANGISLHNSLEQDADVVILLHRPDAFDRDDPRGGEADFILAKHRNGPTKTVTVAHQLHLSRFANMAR

Protein RecA = target: T4, Protein RecA (Mycobacterium tuberculosis, UniProt P9WHJ3); assay: Fluorescence Cell-Free Homogeneous Dose Retest to Identify Inhibitors of RecA-Intein Splicing Activity. [Related pubchem assays (depositor defined):AID2097, AID2223, AID489010, AID492950]; type: functional
T4 sequence (P9WHJ3 whole entry): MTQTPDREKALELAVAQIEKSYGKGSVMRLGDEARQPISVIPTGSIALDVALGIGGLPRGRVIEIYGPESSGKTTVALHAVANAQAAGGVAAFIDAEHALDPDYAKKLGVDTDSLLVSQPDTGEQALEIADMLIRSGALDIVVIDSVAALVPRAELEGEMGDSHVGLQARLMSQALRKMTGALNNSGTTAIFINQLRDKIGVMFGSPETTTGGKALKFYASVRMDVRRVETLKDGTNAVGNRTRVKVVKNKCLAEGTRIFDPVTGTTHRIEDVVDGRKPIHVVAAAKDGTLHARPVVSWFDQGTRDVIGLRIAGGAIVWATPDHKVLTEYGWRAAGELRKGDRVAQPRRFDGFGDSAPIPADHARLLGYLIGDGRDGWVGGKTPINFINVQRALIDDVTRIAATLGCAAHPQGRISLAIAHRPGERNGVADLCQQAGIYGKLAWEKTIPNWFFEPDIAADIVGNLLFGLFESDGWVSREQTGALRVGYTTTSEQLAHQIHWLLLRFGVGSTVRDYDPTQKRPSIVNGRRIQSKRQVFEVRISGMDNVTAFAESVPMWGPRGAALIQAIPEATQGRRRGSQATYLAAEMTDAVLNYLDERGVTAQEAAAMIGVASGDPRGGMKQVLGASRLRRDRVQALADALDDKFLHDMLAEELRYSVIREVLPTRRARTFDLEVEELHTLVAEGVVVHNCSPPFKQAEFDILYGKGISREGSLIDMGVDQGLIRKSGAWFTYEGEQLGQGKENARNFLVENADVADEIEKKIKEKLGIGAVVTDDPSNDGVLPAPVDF

[5] = blockers of HIV-1 envelope-mediated cell-cell fusion – cherry-pick, dose response (AID 652057); type: functional, cell-based
[6] = blockers of HIV-1 ZM109 envelope-driven cell-cell fusion – HeLa effector, CEM target cells, luciferase, cherry-pick, dose response (AID 652058); type: functional, cell-based;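 further: luciferase signal from HIV-1 Env mediated cell-cell fusion of effector and target cells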
[7] = HIV-1 AD8 envelope cell-cell fusion blockers – cherry-pick, dose response (AID 652062); type: functional, cell-based;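 further: luciferase signal from cell-cell fusion driven by HIV-1 clade B AD8 Env; potency is for inhibitors of fusion seen as a drop in luminescence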
H4 = assay: Luminescence Cell-Based Dose Response HTS to Identify Activators of 5'UTR Stem-Loop Driven Prion Protein mRNA Translation in H4 Neuroglioblastoma Cells. [Related pubchem assays: 1829 (Project Summary), 1814 (Primary HTS)]; type: functional; conditions: Homo sapiens
[8] = Luminescence Cell-Based Dose Response HTS to Identify Activators of Luciferase Translation or Activity in H4 […] Cells. [Related pubchem assays: 1829 (Project Summary), 1814 (Primary HTS)]; type: functional
[9] = Luminescence Cell-Based Dose Confirmation HTS to Identify Activators of 5'UTR Stem-Loop Driven Alpha-Synuclein mRNA Translation in H4 Neuroglioblastoma Cells. [Related pubchem assays: 1829 (Project Summary), 1814 (Primary HTS)]; type: functional
Large T antigen = Large T antigen (Simian virus 40, UniProt P03070); type: functional, Betapolyomavirus macacae;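 further: Confirmatory-stage PubChem screen for compounds that inhibit SV40 T antigen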
Sequence of Large T antigen (P03070 whole entry, the tested form may be a part): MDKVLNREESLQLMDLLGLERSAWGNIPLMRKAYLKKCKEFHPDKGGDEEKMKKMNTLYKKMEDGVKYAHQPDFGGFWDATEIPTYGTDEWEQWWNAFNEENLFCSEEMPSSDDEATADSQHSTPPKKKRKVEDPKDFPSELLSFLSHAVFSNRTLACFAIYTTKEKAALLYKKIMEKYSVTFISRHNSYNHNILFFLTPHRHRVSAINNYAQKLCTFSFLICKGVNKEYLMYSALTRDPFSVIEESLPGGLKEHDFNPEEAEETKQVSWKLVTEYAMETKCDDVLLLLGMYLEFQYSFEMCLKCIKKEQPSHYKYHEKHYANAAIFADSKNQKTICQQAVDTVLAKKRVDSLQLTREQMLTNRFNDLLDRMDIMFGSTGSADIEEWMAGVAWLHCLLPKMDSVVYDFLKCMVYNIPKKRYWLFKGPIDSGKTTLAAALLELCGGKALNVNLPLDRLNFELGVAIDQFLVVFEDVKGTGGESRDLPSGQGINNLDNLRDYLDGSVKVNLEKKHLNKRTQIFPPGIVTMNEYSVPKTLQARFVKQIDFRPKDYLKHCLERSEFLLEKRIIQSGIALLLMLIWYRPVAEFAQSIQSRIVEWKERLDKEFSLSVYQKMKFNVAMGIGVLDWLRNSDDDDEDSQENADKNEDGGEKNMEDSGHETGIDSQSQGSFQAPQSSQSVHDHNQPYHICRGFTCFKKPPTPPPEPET

[10] = off-target signal loss in HeLa-CEM21 co-culture – HeLa F-luc CTL cells, cherry-picked, counter-screen for HIV-1 Env fusion inhibitor project, dose response (AID 652040); type: functional, cell-based;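 further: potency for signal decrease marking cytotoxic or nonspecific inhibition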
[11] = target: T5, Rac GTPase-activating protein 1 (Homo sapiens, UniProt Q9H0H5); assay: blockers of MgcRacGAP-driven Rac1 GTP hydrolysis – biochemical, ADP Hunter fluorescence, primary and confirmatory, confirmation (AID 624330); type: functional
T5 sequence (Q9H0H5 whole entry): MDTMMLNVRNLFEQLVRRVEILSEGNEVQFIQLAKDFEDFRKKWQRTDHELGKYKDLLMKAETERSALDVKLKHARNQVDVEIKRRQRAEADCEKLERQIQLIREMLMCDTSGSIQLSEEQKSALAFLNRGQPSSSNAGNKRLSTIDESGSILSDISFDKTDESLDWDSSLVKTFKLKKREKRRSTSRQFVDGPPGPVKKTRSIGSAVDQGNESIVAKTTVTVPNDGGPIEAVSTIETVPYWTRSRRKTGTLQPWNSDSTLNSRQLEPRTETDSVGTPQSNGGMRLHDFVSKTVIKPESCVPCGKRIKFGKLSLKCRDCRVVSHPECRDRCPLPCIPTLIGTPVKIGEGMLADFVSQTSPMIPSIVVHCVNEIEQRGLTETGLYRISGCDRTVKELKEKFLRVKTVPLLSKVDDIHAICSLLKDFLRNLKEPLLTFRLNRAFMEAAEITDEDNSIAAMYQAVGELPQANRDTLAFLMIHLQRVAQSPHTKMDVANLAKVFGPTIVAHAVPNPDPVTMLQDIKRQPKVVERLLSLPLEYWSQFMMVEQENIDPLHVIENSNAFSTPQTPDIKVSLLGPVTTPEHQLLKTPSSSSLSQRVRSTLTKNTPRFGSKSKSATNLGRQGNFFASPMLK

[12] = reduction of Shn3 3'UTR-driven luciferase in osteoblasts – cell-based, Clone20 osteoblasts, firefly luciferase, cherry-picked, dose response (AID 624132); type: functional;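 further: firefly luciferase luminescence from reporter carrying the Shn3 3'UTR in osteoblasts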
[13] = target: FAD-linked sulfhydryl oxidase ALR (Homo sapiens, UniProt P55789); assay: ALR-catalysed DTT oxidation blockers – biochemical, H2O2 detection, luminescence, cherry-pick, dose response (AID 493248)
Sequence of FAD-linked sulfhydryl oxidase ALR (P55789 whole entry): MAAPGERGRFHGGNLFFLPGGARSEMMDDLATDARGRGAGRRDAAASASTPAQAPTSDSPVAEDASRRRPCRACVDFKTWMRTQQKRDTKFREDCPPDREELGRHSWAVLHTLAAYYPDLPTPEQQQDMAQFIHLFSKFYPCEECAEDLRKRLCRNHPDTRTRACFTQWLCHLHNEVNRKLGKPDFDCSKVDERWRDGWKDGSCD

T1 sequence (P49327 whole entry): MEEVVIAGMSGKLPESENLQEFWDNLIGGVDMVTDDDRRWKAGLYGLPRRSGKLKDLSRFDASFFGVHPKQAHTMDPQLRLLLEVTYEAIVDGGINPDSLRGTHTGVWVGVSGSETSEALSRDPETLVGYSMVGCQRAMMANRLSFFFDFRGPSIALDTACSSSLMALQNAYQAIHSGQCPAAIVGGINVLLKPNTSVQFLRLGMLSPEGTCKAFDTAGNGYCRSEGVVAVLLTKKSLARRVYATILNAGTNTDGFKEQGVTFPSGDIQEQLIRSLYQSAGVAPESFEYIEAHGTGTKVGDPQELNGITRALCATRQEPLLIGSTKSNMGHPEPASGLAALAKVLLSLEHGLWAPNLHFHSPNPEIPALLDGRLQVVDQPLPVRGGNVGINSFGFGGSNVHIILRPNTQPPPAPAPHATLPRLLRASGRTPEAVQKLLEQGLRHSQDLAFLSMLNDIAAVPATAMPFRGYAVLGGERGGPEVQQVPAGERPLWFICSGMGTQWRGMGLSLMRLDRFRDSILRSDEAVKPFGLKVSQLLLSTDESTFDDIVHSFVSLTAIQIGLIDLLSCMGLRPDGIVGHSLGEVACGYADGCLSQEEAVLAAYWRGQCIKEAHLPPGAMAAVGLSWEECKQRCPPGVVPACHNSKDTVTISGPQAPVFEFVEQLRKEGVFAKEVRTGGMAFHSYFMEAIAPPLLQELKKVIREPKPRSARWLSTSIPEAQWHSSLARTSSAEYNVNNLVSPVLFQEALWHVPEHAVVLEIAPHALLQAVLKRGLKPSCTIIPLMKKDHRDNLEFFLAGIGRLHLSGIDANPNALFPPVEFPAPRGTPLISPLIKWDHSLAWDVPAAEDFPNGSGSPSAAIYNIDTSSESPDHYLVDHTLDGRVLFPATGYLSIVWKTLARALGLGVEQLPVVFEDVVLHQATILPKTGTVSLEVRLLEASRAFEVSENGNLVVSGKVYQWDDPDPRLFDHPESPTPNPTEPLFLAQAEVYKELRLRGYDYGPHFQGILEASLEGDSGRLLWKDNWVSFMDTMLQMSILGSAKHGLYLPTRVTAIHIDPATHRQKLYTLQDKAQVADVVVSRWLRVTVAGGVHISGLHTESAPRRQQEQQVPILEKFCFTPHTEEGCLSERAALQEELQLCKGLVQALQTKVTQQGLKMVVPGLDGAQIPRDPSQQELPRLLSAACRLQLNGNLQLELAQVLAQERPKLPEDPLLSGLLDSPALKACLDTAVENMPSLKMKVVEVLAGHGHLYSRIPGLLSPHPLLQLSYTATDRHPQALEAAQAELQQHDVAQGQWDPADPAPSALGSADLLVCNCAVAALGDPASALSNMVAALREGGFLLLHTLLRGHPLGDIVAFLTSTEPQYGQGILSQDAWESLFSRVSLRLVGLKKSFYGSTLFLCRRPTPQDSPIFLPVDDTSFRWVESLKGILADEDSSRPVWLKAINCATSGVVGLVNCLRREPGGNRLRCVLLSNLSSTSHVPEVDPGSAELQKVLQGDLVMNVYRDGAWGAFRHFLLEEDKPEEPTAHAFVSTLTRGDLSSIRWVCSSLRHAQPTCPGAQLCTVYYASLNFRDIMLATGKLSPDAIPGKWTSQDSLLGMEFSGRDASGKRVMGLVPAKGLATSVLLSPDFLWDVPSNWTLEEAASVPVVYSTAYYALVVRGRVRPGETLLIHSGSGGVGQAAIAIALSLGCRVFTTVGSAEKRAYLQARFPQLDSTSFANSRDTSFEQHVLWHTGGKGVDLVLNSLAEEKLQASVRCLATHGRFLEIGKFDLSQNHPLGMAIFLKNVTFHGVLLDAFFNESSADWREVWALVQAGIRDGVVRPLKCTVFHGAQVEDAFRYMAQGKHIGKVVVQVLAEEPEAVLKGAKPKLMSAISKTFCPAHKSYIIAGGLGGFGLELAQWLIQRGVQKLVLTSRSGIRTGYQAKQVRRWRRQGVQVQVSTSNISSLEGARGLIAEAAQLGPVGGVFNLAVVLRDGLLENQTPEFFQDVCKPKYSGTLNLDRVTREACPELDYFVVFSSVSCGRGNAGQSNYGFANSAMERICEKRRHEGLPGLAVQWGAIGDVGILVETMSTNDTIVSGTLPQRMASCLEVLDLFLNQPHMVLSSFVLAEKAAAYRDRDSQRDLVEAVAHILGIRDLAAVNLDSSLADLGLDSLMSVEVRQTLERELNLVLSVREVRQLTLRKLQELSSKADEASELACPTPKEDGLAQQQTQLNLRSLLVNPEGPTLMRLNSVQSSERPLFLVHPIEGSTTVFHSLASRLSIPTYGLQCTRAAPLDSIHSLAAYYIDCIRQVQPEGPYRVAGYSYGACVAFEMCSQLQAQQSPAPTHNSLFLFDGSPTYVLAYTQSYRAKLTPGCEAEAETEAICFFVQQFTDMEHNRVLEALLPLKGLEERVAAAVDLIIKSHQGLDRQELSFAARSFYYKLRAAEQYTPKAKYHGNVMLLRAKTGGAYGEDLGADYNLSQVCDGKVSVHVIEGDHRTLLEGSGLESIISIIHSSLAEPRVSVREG

SMILES: CC(NC(=O)c1cc([N+](=O)[O-])cc([N+](=O)[O-])c1)c1ccc(-n2ccnc2)cc1 (stereo not given)
- IC50 (Fatty acid synthase [1]): 6.68 µM (active)
- IC50 (cells): 1.43 µM (active)
- IC50 (Fatty acid synthase [2]): 10.1 µM (active)

SMILES: CNCc1ccc(OCc2ccccc2)c(OC)c1
- AC50 [3]: > 20 µM (inactive)

SMILES: CCN1Cc2c(/C=C/c3ccccc3)nc3ccc(OC)cc3c2N(c2cccc(Cl)c2)C1
- IC50 (Fatty acid synthase [1]): 3.61 µM (active)
- IC50 (Fatty acid synthase [2]): 2.35 µM (active)
- AC50 [4]: > 380 µM (inactive)
- EC50 (Protein RecA): 17.6 µM (active)

SMILES: CNCc1ccccc1OCc1ccc(F)cc1
- AC50 [3]: > 20 µM (inactive)

SMILES: Cc1oc(-c2ccccc2F)nc1CN1CCC(C(=O)NCCC2=CCCCC2)CC1
- AC50 [5]: 5.29 µM (active)
- AC50 [6]: 4.91 µM (active)
- AC50 [7]: 1.28 µM (active)

SMILES: Cc1cc([N+](=O)[O-])cc2c1NC(=O)C2(O)N1CCOCC1 (stereo not given)
- AC50 [3]: 15.7 µM (active)

SMILES: O=C(c1ccco1)N1CCCC(Nc2ccc3c(c2)OCCO3)C1 (stereo not given)
- EC50 (H4): 37.7 µM (active)
- EC50 [8]: 9.98 µM (active)
- EC50 [9]: 8.81 µM (active)
- IC50 (Large T antigen): 29.3 µM (active)

SMILES: Cc1cc(Oc2ccc(C#N)cc2)nc(NCc2ccccc2)n1
- AC50 [6]: 5.62 µM (active)
- AC50 [7]: 9.81 µM (active)
- AC50 [10]: > 70 µM (inactive)

SMILES: COc1ccc(/N=C/c2c(O)cc(C)oc2=O)cc1
- IC50 [11]: 85.2 µM (active)
- IC50 (Large T antigen): 7.84 µM (active)

SMILES: CCN(CC)CCSc1nc2ccccc2c(=S)n1-c1ccccc1
- AC50 [3]: > 20 µM (inactive)

SMILES: O=C(N(Cc1ccccc1)c1ccccn1)C12CC3CC(CC(C3)C1)C2
- AC50 [5]: 1.62 µM (active)
- AC50 [6]: 2.19 µM (active)
- AC50 [7]: 6.03 µM (active)
- AC50 [10]: 2.99 µM (active)

SMILES: CCOc1ccc2nc(SC3CC(=O)N(c4ccc(C)cc4)C3=O)sc2c1 (stereo not given)
- AC50 [12]: 15.6 µM (active)

SMILES: CCc1ccc(C2CC(=O)N3CN(c4ccccc4)CSC3=C2C#N)cc1 (stereo not given)
- IC50 (Large T antigen): 70.1 µM (active)

SMILES: COc1cc(/C=N/n2nnnc2N)ccc1O
- AC50 [13]: 1.2 µM (active)
- IC50 [11]: 16.9 µM (active)
- IC50 (Large T antigen): 4.83 µM (active)

SMILES: COc1ccc(S(=O)(=O)Nc2ccc3c(c2)CC(=O)N([C@@H](C)CO)C[C@H](C)[C@H](CN(C)S(=O)(=O)c2ccc(F)cc2)O3)cc1
- AC50 [5]: 10 µM (active)
- AC50 [6]: 11.4 µM (active)
- AC50 [7]: 18.6 µM (active)
